Some results are limits rather than exact numbers.

This is an account of results in patent publication US12471596B2 (priority 2019, dated 2025).

The experiment relates to Phytophthora infestans. The experiment is described as follows: microbe, parasite or virus in culture. The experiment is classed as cell-based. To be noted: in Secale cereale, 168 h, read-out: control compared to the untreated check.
`CSc1nccnc1OCC(=O)N1CCC(c2nc(C3=NOC(c4c(F)cccc4Cl)C3)cs2)CC1` (stereo not shown) [Compound 142, 1-(4-(4-(5-(2-chloro-6-fluorophenyl)-4,5-dihydroisoxazol-3-yl)thiazol-2-yl)piperidin-1-yl)-2-((3-(methylthio)pyrazin-2-yl)oxy)ethan-1-one]: the inhibition of growth at 30 ppm was no less than 70%.
In the case of `CSc1nccnc1OCC(=O)N1CCC(c2nc(C3=NOC(c4c(Cl)cccc4C(F)(F)F)C3)cs2)CC1` (stereo not shown) [Compound 143, 1-(4-(4-(5-(2-chloro-6-(trifluoromethyl)phenyl)-4,5-dihydroisoxazol-3-yl)thiazol-2-yl)piperidin-1-yl)-2-((3-(methylthio)pyrazin-2-yl)oxy)ethan-1-one], the inhibition of growth at 30 ppm was no less than 70%.
`CSc1nccnc1OCC(=O)N1CCC(c2nc(C3=NOC(c4c(Cl)cccc4C#N)C3)cs2)CC1` (stereo not shown) [Compound 146, 3-chloro-2-(3-(2-(1-(2-((3-(methylthio)pyrazin-2-yl)oxy)acetyl)piperidin-4-yl)thiazol-4-yl)-4,5-dihydroisoxazol-5-yl)benzonitrile]: the inhibition of growth at 30 ppm is no less than 70%.
Consider `CSc1nccnc1OCC(=O)N1CCC(c2nc(C3=NOC(c4c(Cl)ccc(F)c4F)C3)cs2)CC1` (stereo not shown) [Compound 147, 1-(4-(4-(5-(6-chloro-2,3-difluorophenyl)-4,5-dihydroisoxazol-3-yl)thiazol-2-yl)piperidin-1-yl)-2-((3-(methylthio)pyrazin-2-yl)oxy)ethan-1-one], for which the inhibition of growth at 30 ppm was no less than 70%.
Regarding `CSc1nccnc1OCC(=O)N1CCC(c2nc(C3=NOC(c4c(Cl)cccc4Cl)C3)cs2)CC1` (stereo not shown) [Compound 148, 1-(4-(4-(5-(2,6-dichlorophenyl)-4,5-dihydroisoxazol-3-yl)thiazol-2-yl)piperidin-1-yl)-2-((3-(methylthio)pyrazin-2-yl)oxy)ethan-1-one], the inhibition of growth at 30 ppm was no less than 70%.
Next, `CSc1nccnc1OCC(=O)N1CCC(c2nc(C3=NOC(c4cc(Cl)ccc4Cl)C3)cs2)CC1` (stereo not shown) [Compound 149, 1-(4-(4-(5-(2,5-dichlorophenyl)-4,5-dihydroisoxazol-3-yl)thiazol-2-yl)piperidin-1-yl)-2-((3-(methylthio)pyrazin-2-yl)oxy)ethan-1-one]: no less than 70%.
As for `O=C(CSc1ccc(C(F)(F)F)nn1)N1CCC(c2nc(C3=NOC(c4c(F)cccc4F)C3)cs2)CC1` (stereo not shown) [Compound 150, 1-(4-(4-(5-(2,6-difluorophenyl)-4,5-dihydroisoxazol-3-yl)thiazol-2-yl)piperidin-1-yl)-2-((6-(trifluoromethyl)pyridazin-3-yl)thio)ethan-1-one], the inhibition of growth at 30 ppm was no less than 70%.
Next, `O=C(CSc1ccc(C(F)(F)F)nn1)N1CCC(c2nc(C3=NOC(c4c(F)cccc4Br)C3)cs2)CC1` (stereo not shown) [Compound 151, 1-(4-(4-(5-(2-bromo-6-fluorophenyl)-4,5-dihydroisoxazol-3-yl)thiazol-2-yl)piperidin-1-yl)-2-((6-(trifluoromethyl)pyridazin-3-yl)thio)ethan-1-one]: no less than 70%; `N#Cc1ccnc(OCC(=O)N2CCC(c3nc(C4=NOC(c5cc(Cl)ccc5Cl)C4)cs3)CC2)n1` (stereo not shown) [Compound 152, 2-(2-(4-(4-(5-(2,5-dichlorophenyl)-4,5-dihydroisoxazol-3-yl)thiazol-2-yl)piperidin-1-yl)-2-oxoethoxy)pyrimidine-4-carbonitrile]: no less than 70%.
Consider `CS(=O)(=O)Oc1ccc(F)c2c1COC(c1csc(C3CCN(C(=O)COc4nccnc4C(F)(F)F)CC3)n1)OC2` (stereo not shown) [Compound 154, 9-fluoro-3-(2-(1-(2-((3-(trifluoromethyl)pyrazin-2-yl)oxy)acetyl)piperidin-4-yl)thiazol-4-yl)-1,5-dihydrobenzo[e][1,3]dioxepin-6-yl methanesulfonate], for which the inhibition of growth at 30 ppm was no less than 70%.
